Converted amounts (≈) assume the structure as drawn.
Tests used:
Type in all cases: functional
Enterococcus faecium [1] = experiment: Antimicrobial activity against Enterococcus faecium expressing VanB gene clinical isolates assessed as percent susceptible isolates by broth microdilution method
Enterococcus faecium [2] = experiment: Antimicrobial activity against Enterococcus faecium expressing VanA gene clinical isolates assessed as percent susceptible isolates by broth microdilution method
Enterococcus faecium [3] = experiment: Antimicrobial activity against vancomycin-nonsusceptible Enterococcus faecium clinical isolates assessed as percent susceptible isolates by broth microdilution method
Enterococcus faecium [4] = experiment: Antimicrobial activity against vancomycin-susceptible Enterococcus faecium clinical isolates assessed as percent susceptible isolates by broth microdilution method
Enterococcus faecium [5] = experiment: Antimicrobial activity against Enterococcus faecium clinical isolates assessed as percent susceptible isolates by broth microdilution method
Enterococcus faecalis [6] = experiment: Antimicrobial activity against Enterococcus faecalis expressing VanB gene clinical isolates assessed as percent susceptible isolates by broth microdilution method
Enterococcus faecalis [7] = experiment: Antimicrobial activity against Enterococcus faecalis expressing VanA gene clinical isolates assessed as percent susceptible isolates by broth microdilution method
Enterococcus faecalis [8] = experiment: Antimicrobial activity against vancomycin-nonsusceptible Enterococcus faecalis clinical isolates assessed as percent susceptible isolates by broth microdilution method
Enterococcus faecalis [9] = experiment: Antimicrobial activity against vancomycin-susceptible Enterococcus faecalis clinical isolates assessed as percent susceptible isolates by broth microdilution method
Enterococcus faecalis [10] = experiment: Antimicrobial activity against Enterococcus faecalis clinical isolates assessed as percent susceptible isolates by broth microdilution method
[11] = tested on: Staphylococcus haemolyticus; experiment: Antimicrobial activity against oxacillin-susceptible Staphylococcus haemolyticus clinical isolates assessed as percent susceptible isolates by broth microdilution method
[12] = tested on: Staphylococcus haemolyticus; experiment: Antimicrobial activity against Staphylococcus haemolyticus clinical isolates assessed as percent susceptible isolates by broth microdilution method
[13] = tested on: Staphylococcus epidermidis; experiment: Antimicrobial activity against oxacillin-resistant Staphylococcus epidermidis clinical isolates assessed as percent susceptible isolates by broth microdilution method
[14] = tested on: Staphylococcus epidermidis; experiment: Antimicrobial activity against oxacillin-susceptible Staphylococcus epidermidis clinical isolates assessed as percent susceptible isolates by broth microdilution method
[15] = tested on: Staphylococcus epidermidis; experiment: Antimicrobial activity against Staphylococcus epidermidis clinical isolates assessed as percent susceptible isolates by broth microdilution method
Staphylococcus aureus [16] = experiment: Antimicrobial activity against oxacillin-susceptible Staphylococcus aureus clinical isolates assessed as percent susceptible isolates by broth microdilution method
Staphylococcus aureus [17] = experiment: Antimicrobial activity against Staphylococcus aureus clinical isolates assessed as percent susceptible isolates by broth microdilution method
Enterococcus faecium [18] = experiment: Antimicrobial activity against Enterococcus faecium expressing VanB gene clinical isolates by broth microdilution method
Enterococcus faecium [19] = experiment: Antimicrobial activity against Enterococcus faecium expressing VanA gene clinical isolates by broth microdilution method
Enterococcus faecium [20] = experiment: Antimicrobial activity against vancomycin-nonsusceptible Enterococcus faecium clinical isolates by broth microdilution method
Enterococcus faecium [21] = experiment: Antimicrobial activity against vancomycin-susceptible Enterococcus faecium clinical isolates by broth microdilution method
Enterococcus faecium [22] = experiment: Antimicrobial activity against Enterococcus faecium clinical isolates by broth microdilution method
Enterococcus faecalis [23] = experiment: Antimicrobial activity against Enterococcus faecalis expressing VanB gene clinical isolates by broth microdilution method
Enterococcus faecalis [24] = experiment: Antimicrobial activity against Enterococcus faecalis expressing VanA gene clinical isolates by broth microdilution method
Enterococcus faecalis [25] = experiment: Antimicrobial activity against vancomycin-nonsusceptible Enterococcus faecalis clinical isolates by broth microdilution method
Enterococcus faecalis [26] = experiment: Antimicrobial activity against vancomycin-susceptible Enterococcus faecalis clinical isolates by broth microdilution method
Enterococcus faecalis [27] = experiment: Antimicrobial activity against Enterococcus faecalis clinical isolates by broth microdilution method
[28] = tested on: Staphylococcus haemolyticus; experiment: Antimicrobial activity against oxacillin-resistant Staphylococcus haemolyticus clinical isolates by broth microdilution method
[29] = tested on: Staphylococcus haemolyticus; experiment: Antimicrobial activity against oxacillin-susceptible Staphylococcus haemolyticus clinical isolates by broth microdilution method
[30] = tested on: Staphylococcus haemolyticus; experiment: Antimicrobial activity against Staphylococcus haemolyticus clinical isolates by broth microdilution method
[31] = tested on: Staphylococcus epidermidis; experiment: Antimicrobial activity against oxacillin-resistant Staphylococcus epidermidis clinical isolates by broth microdilution method
[32] = tested on: Staphylococcus epidermidis; experiment: Antimicrobial activity against oxacillin-susceptible Staphylococcus epidermidis clinical isolates by broth microdilution method
[33] = tested on: Staphylococcus epidermidis; experiment: Antimicrobial activity against Staphylococcus epidermidis clinical isolates by broth microdilution method
Staphylococcus aureus [34] = experiment: Antimicrobial activity against oxacillin-resistant Staphylococcus aureus clinical isolates by broth microdilution method
Staphylococcus aureus [35] = experiment: Antimicrobial activity against oxacillin-susceptible Staphylococcus aureus clinical isolates by broth microdilution method
Staphylococcus aureus [36] = experiment: Antimicrobial activity against Staphylococcus aureus clinical isolates by broth microdilution method

## CCCCCCCCCC(=O)N[C@@H](Cc1c[nH]c2ccccc12)C(=O)N[C@H](CC(N)=O)C(=O)N[C@@H](CC(=O)O)C(=O)N[C@@H]1C(=O)NCC(=O)N[C@@H](CCCN)C(=O)N[C@@H](CC(=O)O)C(=O)N[C@H](C)C(=O)N[C@@H](CC(=O)O)C(=O)NCC(=O)N[C@H](CO)C(=O)N[C@@H]([C@H](C)CC(=O)O)C(=O)N[C@@H](CC(=O)c2ccccc2N)C(=O)O[C@@H]1C
Enterococcus faecium [1]
  Activity: 93.1%
Enterococcus faecium [2]
  Activity: 98.8%
Enterococcus faecium [3]
  Activity: 98.5%
Enterococcus faecium [4]
  Activity: 98.3%
Enterococcus faecium [5]
  Activity: 98.4%
Enterococcus faecalis [6]
  Activity: 100%
Enterococcus faecalis [7]
  Activity: 98.5%
Enterococcus faecalis [8]
  Activity: 98.9%
Enterococcus faecalis [9]
  Activity: 99.9%
Enterococcus faecalis [10]
  Activity: 99.9%
[11]
  Activity: 100%
[12]
  Activity: 100%
[13]
  Activity: 99.8%
[14]
  Activity: 100%
[15]
  Activity: 99.9%
Staphylococcus aureus [16]
  Activity: 99.9%
Staphylococcus aureus [17]
  Activity: 99.9%
Enterococcus faecium [18]
  MIC90: 4 µg/mL (≈ 2.47 µM)
Enterococcus faecium [19]
  MIC90: 4 µg/mL (≈ 2.47 µM)
Enterococcus faecium [20]
  MIC90: 4 µg/mL (≈ 2.47 µM)
Enterococcus faecium [21]
  MIC90: 4 µg/mL (≈ 2.47 µM)
Enterococcus faecium [22]
  MIC90: 4 µg/mL (≈ 2.47 µM)
Enterococcus faecalis [23]
  MIC90: 2 µg/mL (≈ 1.23 µM)
Enterococcus faecalis [24]
  MIC90: 2 µg/mL (≈ 1.23 µM)
Enterococcus faecalis [25]
  MIC90: 2 µg/mL (≈ 1.23 µM)
Enterococcus faecalis [26]
  MIC90: 2 µg/mL (≈ 1.23 µM)
Enterococcus faecalis [27]
  MIC90: 2 µg/mL (≈ 1.23 µM)
[28]
  MIC90: 0.5 µg/mL (≈ 0.309 µM)
[29]
  MIC90: 0.5 µg/mL (≈ 0.309 µM)
[30]
  MIC90: 0.5 µg/mL (≈ 0.309 µM)
[31]
  MIC90: 0.5 µg/mL (≈ 0.309 µM)
[32]
  MIC90: 0.5 µg/mL (≈ 0.309 µM)
[33]
  MIC90: 0.5 µg/mL (≈ 0.309 µM)
Staphylococcus aureus [34]
  MIC90: 0.5 µg/mL (≈ 0.309 µM)
Staphylococcus aureus [35]
  MIC90: 0.5 µg/mL (≈ 0.309 µM)
Staphylococcus aureus [36]
  MIC90: 0.5 µg/mL (≈ 0.309 µM)

From ChEMBL document CHEMBL1649268, “Comparative in vitro activity profile of oritavancin against recent gram-positive clinical isolates” (2009)
